The record followed here is ChEMBL document CHEMBL5226369, “Tetracyclic Steroids Bearing a Bicyclo[4.4.1] Ring System as Potent Antiosteoporosis Agents from the Deep-Sea-Derived Fungus Rhizopus sp. W23” (J Nat Prod, 2023).

Calls of active or inactive are those of the source. No cut-off for these calls is given here.

One assay relates to A-431. In words: Antiproliferative activity against human A-431 cells by MTT assay. Type of assay: functional, cell-based. A general note: Tetrazolium assays rely on reduction of a dye to a coloured formazan, in cell work by metabolically active cells.
The subject of a further assay is A549. In words: Antiproliferative activity against human A549 cells by MTT assay. Type of assay: functional, cell-based.
The subject of the next assay is MDA-MB-231. The assay can be described thus: Antiproliferative activity against human MDA-MB-231 cells by MTT assay. It is filed as functional, cell-based.
In another assay the test system is MCF7. The assay can be described thus: Antiproliferative activity against human MCF7 cells by MTT assay. Type of assay: functional, cell-based.
For another assay, the system named is PANC-1. The assay can be described thus: Antiproliferative activity against human PANC-1 cells by MTT assay. Type of assay: functional, cell-based.
A further assay deals with HepG2. The assay can be described thus: Antiproliferative activity against human HepG2 cells by MTT assay. It is filed as functional, cell-based.
Another assay has as its system HCT-116. The assay can be described thus: Antiproliferative activity against human HCT-116 cells by MTT assay. Type of assay: functional, cell-based.
The test system of another assay is NCI-H460. In words: Antiproliferative activity against human NCI-H460 cells by MTT assay. Type of assay: functional, cell-based.
The test system of a further assay is NCI-H1299. In words: Antiproliferative activity against human NCI-H1299 cells by MTT assay. It is filed as functional, cell-based.
Assay [1] is described as follows: Antiproliferative activity against human QGY-7701 cells by MTT assay. It is filed as functional, cell-based. Particulars: QGY7701.
The next assay has as its system BGC-823. The assay can be described thus: Antiproliferative activity against human BGC-823 cells by MTT assay. Type of assay: functional, cell-based.
Assay [2] in a line: Antiproliferative activity against human SKGT4 cells by MTT assay. It is filed as functional, cell-based.
In the next assay the test system is A-375. In words: Antiproliferative activity against human A-375 cells by MTT assay. It is filed as functional, cell-based.
The next assay concerns U2OS. The assay can be described thus: Antiproliferative activity against human U2OS cells by MTT assay. It is filed as functional, cell-based.
For a further assay, the system named is HL-60. In words: Antiproliferative activity against human HL-60 cells by MTT assay. It is filed as functional, cell-based.
The next assay has as its system K562. In words: Antiproliferative activity against human K562 cells by MTT assay. Type of assay: functional, cell-based.
The test system of another assay is KYSE-450. The assay can be described thus: Antiproliferative activity against human KYSE-450 cells by MTT assay. It is filed as functional, cell-based.
The test system of the next assay is PC-3. The assay can be described thus: Antiproliferative activity against human PC-3 cells by MTT assay. Type of assay: functional, cell-based.
The subject of assay [3] is BMSC. The assay can be described thus: Anti-osteoporosis activity against C57BL/6J mouse BMSC cells assessed as increase in matrix mineralization of osteoblasts at 20 uM incubated for 14 days by Alizarin Red S staining based analysis. It is filed as functional, cell-based. Particulars: time 14.0 day.
The nature of assay [4]: (§1) Anti-osteoporosis activity against C57BL/6J mouse BMSC cells assessed as increase in osteogenic mineralization incubated for 14 days by Alizarin Red S staining based analysis. Type of assay: functional. Particulars: 336 h, time 14 day, read-out: MEC.
Assay [5] deals with BMSC. The description is as §1. Type of assay: functional. The note with it: time 14.0 day.
Assay [6] can be described thus: Inhibition of adipogenic differentiation in C57BL/6J mouse BMSC cells at 20 uM measured after 6 days by Oil Red O staining based light microscopy. It is filed as functional. Particulars: 144 h, time 6 day.
The nature of assay [7]: Inhibition of adipogenic differentiation in C57BL/6J mouse BMSC cells at 5 uM measured after 6 days by Oil Red O staining based light microscopy. Type of assay: functional. Particulars: 144 h, time 6 day.
The target in a further assay is Protein smoothened (Homo sapiens, UniProt Q99835). In words: Agonist activity at SMO receptor (unknown origin).
Chain of Protein smoothened (Q99835 whole entry): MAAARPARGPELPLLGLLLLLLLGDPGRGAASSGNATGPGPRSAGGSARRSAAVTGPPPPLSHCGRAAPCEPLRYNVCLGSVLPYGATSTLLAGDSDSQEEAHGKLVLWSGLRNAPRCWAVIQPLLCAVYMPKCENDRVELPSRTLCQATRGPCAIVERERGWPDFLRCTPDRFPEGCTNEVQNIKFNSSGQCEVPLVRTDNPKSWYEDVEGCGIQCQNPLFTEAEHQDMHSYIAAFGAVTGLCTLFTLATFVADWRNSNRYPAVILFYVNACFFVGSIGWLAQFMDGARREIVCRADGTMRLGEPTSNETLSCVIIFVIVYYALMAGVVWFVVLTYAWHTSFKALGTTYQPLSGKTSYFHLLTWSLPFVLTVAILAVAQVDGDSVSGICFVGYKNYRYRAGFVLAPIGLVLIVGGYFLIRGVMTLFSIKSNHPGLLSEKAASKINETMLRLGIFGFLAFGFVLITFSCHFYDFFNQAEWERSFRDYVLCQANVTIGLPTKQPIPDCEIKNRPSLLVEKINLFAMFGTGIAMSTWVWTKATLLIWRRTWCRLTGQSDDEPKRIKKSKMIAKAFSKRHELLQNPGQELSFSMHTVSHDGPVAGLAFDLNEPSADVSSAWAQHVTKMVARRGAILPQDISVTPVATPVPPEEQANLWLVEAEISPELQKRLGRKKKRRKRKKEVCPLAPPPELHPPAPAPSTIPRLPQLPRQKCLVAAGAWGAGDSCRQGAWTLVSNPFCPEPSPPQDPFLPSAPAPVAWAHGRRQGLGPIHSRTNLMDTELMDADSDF

One may read the IC50 as the concentration needed to halve the response being measured. A higher IC50 goes with weaker potency. The term inhibition denotes the percentage by which the read-out fell short of the control. Higher therefore signals a response far below the control. For `C/C(=C/[C@H](O)[C@H](C)O)[C@H]1CC[C@H]2C3=CC(=O)[C@H]4CC(=CC[C@H](O)C4)[C@H]3CC[C@]12C`, the IC50 in the assay on A-431, with A549, in the assay on MDA-MB-231, in the assay on MCF7, in the assay with PANC-1 and in the assay with HepG2 was over 20 µM each time. The IC50 (in the assay with HCT-116; in the assay on NCI-H460; with NCI-H1299; in assay [1]; in the assay on BGC-823; in assay [2]) was over 20 µM in each case. Besides, the IC50 with A-375, in the assay with U2OS, in the assay with HL-60, in the assay with K562, with KYSE-450 and with PC-3 was over 20 µM each time. Further, in the assay with BMSC [3], the outcome was Active. In [4], the minimal effective concentration is 20 µM. In addition, the Activity result with BMSC [5] was “Dose-Dependent Effect”. Further, 20 µM produced 65% inhibition in assay [6].

As to `C/C=C/[C@H](O)[C@](C)(O)[C@H]1CC[C@H]2C3=CC(=O)[C@H]4CC(=CC[C@H](O)C4)[C@H]3CC[C@]12C`, the IC50 in the assay on A-431, in the assay with A549, in the assay with MDA-MB-231, in the assay with MCF7, with PANC-1 and in the assay on HepG2 was over 20 µM throughout. For the same compound, the IC50 (in the assay on HCT-116; in the assay with NCI-H460; in the assay on NCI-H1299; in [1]; with BGC-823; in [2]) was over 20 µM each time. In addition, the IC50 in the assay with A-375, in the assay with U2OS, in the assay with HL-60, with K562, in the assay on KYSE-450 and with PC-3 was over 20 µM in each case.

For `COC(/C=C(\C)[C@H]1CC[C@H]2C3=CC(=O)[C@H]4CC(=CC[C@H](O)C4)[C@H]3CC[C@]12C)C(C)O` (stereo not given in full), the IC50 in the assay on A-431, in the assay with A549, in the assay on MDA-MB-231, in the assay on MCF7, with PANC-1 and with HepG2 was over 20 µM each time. The IC50 (in the assay with HCT-116; in the assay with NCI-H460; with NCI-H1299; in assay [1]; with BGC-823; in assay [2]) was over 20 µM each time. Besides, the IC50 in the assay with A-375, in the assay with U2OS, with HL-60, in the assay with K562, in the assay with KYSE-450 and in the assay with PC-3 was over 20 µM throughout.

Regarding `CO[C@@H](/C=C(\C)[C@H]1CC[C@H]2C3=CC(=O)[C@H]4CC(=CC[C@H](O)C4)[C@H]3CC[C@]12C)[C@@H](C)O`, the IC50 in the assay on A-431, in the assay with A549, in the assay with MDA-MB-231, in the assay with MCF7, in the assay with PANC-1 and with HepG2 was over 20 µM in each case. Besides, the IC50 (with HCT-116; in the assay on NCI-H460; in the assay with NCI-H1299; in assay [1]; in the assay with BGC-823; in assay [2]) was over 20 µM each time. Besides, the IC50 with A-375, in the assay with U2OS, in the assay on HL-60, in the assay on K562, in the assay with KYSE-450 and in the assay on PC-3 was over 20 µM throughout.

Regarding `C/C(=C\[C@@H](O)[C@H](C)O)[C@H]1CC[C@H]2C3=CC(=O)[C@H]4CC(=CC[C@H](O)C4)[C@H]3CC[C@]12C` [NEOCYCLOCITRINOL C], the IC50 in the assay on A-431, in the assay on A549, with MDA-MB-231, with MCF7, with PANC-1 and with HepG2 was over 20 µM throughout. In addition, the half-maximal inhibitory concentration (IC50) (in the assay on HCT-116; with NCI-H460; in the assay with NCI-H1299; in [1]; in the assay on BGC-823; in assay [2]) was over 20 µM throughout. The IC50 with A-375, in the assay with U2OS, in the assay on HL-60, with K562, in the assay with KYSE-450 and with PC-3 was over 20 µM in each case. In the assay with BMSC [3], the outcome was Active. For the same compound, the minimal effective concentration in [4] worked out at 5 µM. Moreover, the Activity entry in the assay on BMSC [5] was “Dose-Dependent Effect”. In assay [7], this compound displayed an inhibition at 5 µM of 78%.

Turning to `C/C(=C\[C@H](O)[C@@H](C)O)[C@H]1CC[C@H]2C3=CC(=O)[C@H]4CC(=CC[C@H](O)C4)[C@H]3CC[C@]12C`, the IC50 with A-431, in the assay on A549, in the assay with MDA-MB-231, with MCF7, in the assay with PANC-1 and in the assay on HepG2 was over 20 µM each time. For the same compound, the IC50 (in the assay with HCT-116; with NCI-H460; in the assay on NCI-H1299; in [1]; in the assay on BGC-823; in assay [2]) was over 20 µM in each case. Further, the IC50 with A-375, in the assay on U2OS, in the assay on HL-60, in the assay with K562, with KYSE-450 and in the assay on PC-3 was over 20 µM in each case.

With `C/C(=C\[C@@H](O)[C@@H](C)O)[C@H]1CC[C@H]2C3=CC(=O)[C@H]4CC(=CC[C@H](O)C4)[C@H]3CC[C@]12C`, the IC50 in the assay on A-431, in the assay with A549, with MDA-MB-231, in the assay with MCF7, in the assay on PANC-1 and in the assay on HepG2 was over 20 µM in each case. Further, the IC50 (in the assay on HCT-116; in the assay with NCI-H460; in the assay on NCI-H1299; in assay [1]; with BGC-823; in [2]) was over 20 µM throughout. Besides, the IC50 in the assay with A-375, in the assay with U2OS, in the assay on HL-60, in the assay with K562, with KYSE-450 and with PC-3 was over 20 µM each time.

Broadly, the EC50 is the concentration that produces a half-maximal response. Read a high EC50 as weaker potency. On Protein smoothened, `c1ccc2c(Oc3nc(Nc4ccc(N5CCOCC5)cc4)c4ncn(C5CCCCC5)c4n3)cccc2c1` [PURMORPHAMINE] returned an EC50 of 1 µM.
